US10954258B2, “STAT3 dimerization inhibitors” (H. LEE MOFFITT CANCER CENTER AND RESEARCH INSTITUTE, INC., priority 2012, dated 2021)

Columns and labels:
Type in all cases: cell-based, human
[1] = test system: STAT3-DNA binding activity in MDA-MB-468 and A-549 cells; test: STAT3-DNA binding filter plate assay on nuclear extracts; conditions: 1, 2 or 4 hours
Description: Nuclear extract preparation was carried out as described in Yu, et al., Science 1995; 269(5220):81-83. The STAT3-DNA binding filter plate assay was performed following the manual of the filter plate assay kit (Signosis, Sunnyvale, Calif.), as described for NFkB (Ying, et al., Blood 2011; 117(4):1301-1307). The TF Binding buffer was mixed with the STAT3 probe (biotin labeled STAT3 DNA binding sequence) and nuclear extract and incubated at 16° C. for 30 minutes to form the STAT3-DNA complex. The STAT3-DNA complex was then separated from free probe by using a filter plate. After several steps of binding and washing, bound STAT3 probe is retained on the filter in the corresponding well of Filer Plate and the free DNA probe is removed. The bound pre-labeled STAT3 probe was then eluted from the filter plate by centrifuge with elution buffer. Eluted probes were then hybridized into 96-well Hybridization Plate for quantitative analysis. The captured STAT3 probe was further detected by conjugation with streptavidin-HRP. The chemiluminescence of each well was detected by 2104 EnVisionR Multilabel Reader of PerkinElmer (Pekin Elmer, Waltham, Mass., USA) within 5 minutes after mixture with substrates. […]

[2] = test system: MDA-MB-468, MDA-MB-231, H358, A549 cells; test: MTT assay, cells with persistently activated STAT3; conditions: 48 hours
Description: MTT assay was performed exactly as described by Balasis, et al., Clin. Cancer Res. 2011; 17(9):2852-2862, to determine the effects of S3I-1757 on cell proliferation. Cells were plated in a 96 well tissue culture plate (2000 cells per well) and incubated for 12 hours. After incubation the cells were treated with vehicle S3I-1757 or S3I-1756 for 48 hours. After incubation, freshly prepared MTT (3 mg/ml) in 1×PBS was added to each well and incubated for 3 hours and the plate was read at 570 nm.
Several cell lines were used, some with persistently Y705 phosphorylated STAT3 and others without (FIG. 9A). […] The effects of S3I-1757 on cancer cell anchorage-independent growth were next determined by soft-agar assay.

MDA-MB-468 cells = test: anchorage independent growth by soft agar assay, MDA-MB-468; conditions: constitutively active STAT3
Description: Soft agar colony formation assays were performed in 12-well plate as described in Balasis, et al., Clin. Cancer. […] Colonies were allowed to grow for 3-4 weeks, and quantified by staining with 1 mg/mL MTT (Sigma, St. Louis, Mo., USA) overnight.

H460 cells = test: wound healing (migration) assay, H460; conditions: low levels of P-STAT3
Description: A549, MDA-MB-231 and H460 cells were seeded at 6×10^5 cells per dish into 60 mm plate and allowed to grow overnight. Wounds were made the following day by scratching the cells with pipette tips (1-10 μL).

[3] = target: binding of FLAG-STAT3 to HA-STAT3 (Mus musculus, UniProt P42227); test: co-immunoprecipitation of FLAG-STAT3 with HA-STAT3 in HEK293 cells; conditions: HEK293 cells co-expressing FLAG- and HA-STAT3; treated 4 h
Description: HEK-293/FLAG-STAT3/HA-STAT3 cells were treated for 4 h with vehicle, S3I-1757, S3I-1756, Ac-G{pTYR}LPQTV-[…]-NH2 (SEQ ID NO:3) or Ac-GYLPQTV-[…]-NH2 (SEQ ID NO:4) and then lysed in 20 mM Tris-HCl (pH 7.4), 5 mM EDTA, 10 mM Na4P2O7, 100 mM NaF, 2 mM Na3VO4, 1% NP-40.1 mM PMSF and 10 mg/ml aprotinin. For EGF stimulation group, HEK-293/FLAG-STAT3/HASTAT3 cells were treated by 100 ng/ml EGF for 30 minutes before making cell lysate. Protein A or G agarose (EMD Millipore, Billerica, Mass., USA) was washed twice with PBS and restore to 50% slurry with PBS. 500 μg of lysate were pre-cleared by mixture of protein A and protein G-agarose for 1 h at 4° C. and then remove protein A and G-agarose by centrifuge at 1300 rpm for 3 minutes. And then 500 μg of lysate was immunoprecipitated with 50 ng of HA antibody overnight at 4° C. on shaker and then capture the immunocomplex by adding 100 μl Protein A and G agarose/sepharose bead slurry for 1 hour at 4° C. Samples were washed five times with lysis buffer and then boiled in 5×SDS-PAGE sample buffer and run on SDS-PAGE gel. Protein was transferred to nitrocellulose membrane and then blotted as described above for HA, FLAG, pSTAT3, EGFR, and STAT3.
However, the FP assay only measured the ability of S3I-1757 to displace the 7 amino acid fluorescein-labelled GpYLPQTV phosphotyrosine peptide from the SH2 domain of STAT3 protein in vitro. Therefore, it was determined if the intracellular reciprocal binding of 2 full-length STAT3 proteins is inhibited. To this end, an assay was developed to measure directly STAT3-STAT3 dimerization in intact cells by cloning HA-tagged STAT3 and FLAG-tagged STAT3, generating HEK293 cells that stably co-express HA-STAT3 and FLAG-STAT3 and using these cells for coimmunoprecipitation and co-localization. […] This assay was validated by treating the FLAG-STAT3/HA-STAT3 HEK293 cells with tyrosine phosphorylated or nonphosphorylated GYLPQTV peptide fused to a membrane-translocating sequence (MTS) to allow cell uptake. […]

Sequence of binding of FLAG-STAT3 to HA-STAT3 (P42227 whole entry): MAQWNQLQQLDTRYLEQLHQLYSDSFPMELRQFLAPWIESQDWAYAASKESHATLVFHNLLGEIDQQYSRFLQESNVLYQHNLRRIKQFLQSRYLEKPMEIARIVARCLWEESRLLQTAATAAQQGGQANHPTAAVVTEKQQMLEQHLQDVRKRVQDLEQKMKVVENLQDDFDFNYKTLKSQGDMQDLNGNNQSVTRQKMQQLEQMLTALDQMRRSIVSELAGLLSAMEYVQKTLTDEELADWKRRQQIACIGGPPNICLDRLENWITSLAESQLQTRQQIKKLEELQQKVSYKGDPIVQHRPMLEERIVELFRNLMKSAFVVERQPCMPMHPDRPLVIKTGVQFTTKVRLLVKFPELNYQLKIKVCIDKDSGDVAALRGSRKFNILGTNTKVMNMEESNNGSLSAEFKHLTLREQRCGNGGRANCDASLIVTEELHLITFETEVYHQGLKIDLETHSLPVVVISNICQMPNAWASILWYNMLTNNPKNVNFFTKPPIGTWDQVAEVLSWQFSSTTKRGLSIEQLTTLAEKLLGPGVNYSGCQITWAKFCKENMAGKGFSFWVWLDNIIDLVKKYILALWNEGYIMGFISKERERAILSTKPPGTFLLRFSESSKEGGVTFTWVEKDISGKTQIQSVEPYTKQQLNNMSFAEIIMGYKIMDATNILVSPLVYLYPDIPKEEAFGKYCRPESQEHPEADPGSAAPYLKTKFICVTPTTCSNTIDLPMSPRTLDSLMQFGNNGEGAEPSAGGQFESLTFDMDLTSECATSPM

## O=C(O)c1cc(N(Cc2ccc(C3CCCCC3)cc2)C(=O)c2ccc(Oc3ccccc3)cc2)ccc1O [Compound 20g, 5-(N-(4-Cyclohexylbenzyl)-4-phenoxybenzamido)-2-hydroxybenzoic acid]
[1]
  activated STAT3 in nuclear extracts capable of binding the STAT3 DNA binding probe: contained less activated STAT3 capable of binding the STAT3 DNA binding probe
[2]
  anchorage-dependent proliferation by MTT, cells that harbor persistently activated STAT3: inhibited in a dose dependent manner
MDA-MB-468 cells
  anchorage independent growth (soft agar), MDA-MB-468: significantly inhibited
H460 cells
  migration (wound healing), H460: minimally affected
[3]
  binding of FLAG-STAT3 to HA-STAT3 (co-immunoprecipitation): inhibited the binding of FLAG-STAT3 to HA-STAT3 in a concentration-dependent manner
